Results as given in the RepoRT retention time repository (doi:10.1021/acs.analchem.2c02893).

test: RP, Thermo Scientific Acclaim RSLC 120 C18, 100 × 2.1 mm, 2.2 µm, 30 °C, 0.2 mL/min, estimated dead time 1.1 min; A: 90% water + 10% methanol + 0.01% formic acid + 5 mM ammonium formate, pH 3.61; B: methanol + 0.01% formic acid + 5 mM ammonium formate, pH 3.61; gradient (min/%B) 0/1 1/1 2/39 13/99.9 15/99.9 15.1/1 20.1/1; conditions: stereoisomer not certain

In order of falling LC retention time:
1. CC1COCc2cc3c(cc21)C(C)(C)C(C)C3(C)C (configuration not stated) [Galaxolide]  13.9 min
2. CCCCCCCC(C)(C)c1ccc(C2CCCC(O)C2)c(O)c1 (configuration not stated) [CP 47-497-C8]  13.5 min
3. CCCCCn1cc(C(=O)c2ccc(Cl)c3ccccc23)c2ccccc21 [JWH-398]  13.3 min
4. CCC=CCC1=C(C)C(OC(=O)C2C(C=C(C)C)C2(C)C)CC1=O (configuration not stated) [Pyrethrins: Jasmolin I]  13.3 min
5. CCCCCCCCCCCCCCCC[N+](C)(C)Cc1ccccc1 [Benzyldimethylhexadecylammonium]  13.1 min
6. O=c1oc2ccccc2c(O)c1C1CC(c2ccc(-c3ccc(Br)cc3)cc2)Cc2ccccc21 (configuration not stated) [Brodifacoum]  13 min
7. COC(=O)C(NC(=O)c1nn(CC2CCCCC2)c2ccccc12)C(C)(C)C (configuration not stated) [MDMB-CHMINACA (MDMB-CHMICA)]  12.9 min
8. C=C(C)C1CCC(C)=CC1c1c(O)cc(CCCCC)cc1O (configuration not stated) [Cannabidiol]  12.7 min
9. CCCCCn1cc(C(=O)c2cccc3ccccc23)c2ccc(OC)cc21 [JWH-018-6-Methoxy-Ind]  12.4 min
10. CCc1ccc(C(=O)c2cn(CCCCCF)c3ccccc23)c2ccccc12 [EAM-2201]  12.2 min
11. Cc1cccc(N(C)C(=S)Oc2ccc3ccccc3c2)c1 [Tolnaftate]  12.2 min
12. OC(c1ccc(Cl)cc1)(c1ccc(Cl)cc1)C(Cl)(Cl)Cl [Dicofol]  11.8 min
13. COC(=O)c1cc(Oc2ccc(Cl)cc2Cl)ccc1[N+](=O)[O-] [Bifenox]  11.5 min
14. COc1ccsc1CN(C(=O)CCl)c1c(C)cccc1C [Thenylchlor]  10.1 min
15. Cc1cc(C)cc(C(=O)N(NC(=O)c2ccc3c(c2C)CCCO3)C(C)(C)C)c1 [Chromafenozide]  9.93 min
16. CCCc1nn(C)c2c(=O)[nH]c(-c3cc(C(C)=O)ccc3OCC)nc12 [Gendenafil]  9.81 min
17. CC(C)C(NC(=O)c1nn(Cc2ccc(F)cc2)c2ccccc12)C(N)=O (configuration not stated) [AB-FUBINACA]  9.59 min
18. O=C1NCN(c2ccccc2)C12CCN(CCCC(c1ccc(F)cc1)c1ccc(F)cc1)CC2 [Fluspirilen]  9.19 min
19. OC(c1ccc(F)cc1)(c1cncnc1)c1ccccc1Cl (configuration not stated) [Nuarimol]  9.17 min
20. CN(C)CCC=C1c2ccccc2C(C)(C)c2ccccc21 [Melitracen]  8.79 min
21. O=C1CN=C(c2ccccc2F)c2cc(Br)ccc2N1 [Flubromazepam]  8.7 min
22. CNC(=O)c1cc(Cl)cc(C)c1NC(=O)c1cc(Br)nn1-c1ncccc1Cl [Chlorantraniliprole]  8.7 min
23. CCOC(=O)C1=C(COCCN)NC(C)=C(C(=O)OC)C1c1ccccc1Cl (configuration not stated) [Amlodipine]  8.36 min
24. CC=C(C)C(=O)OC1CC(OC(C)=O)C2(C(=O)OC)COC3C2C12COC(O)(C(=O)OC)C2C(C)(C12OC1(C)C1CC2OC2OC=CC21O)C3O (configuration not stated) [Azadirachtin]  7.56 min
25. CCCC(C(=O)c1ccc2ccccc2c1)N1CCCC1 (configuration not stated) [Naphyrone]  7.33 min
26. CCCSc1cc(OC)c(CCN)cc1OC [2C-T-7]  6.98 min
27. CN1CCN2c3ccccc3Cc3ccccc3C2C1 (configuration not stated) [Mianserine]  6.94 min
28. O=c1c(-c2ccc(O)cc2)coc2cc(O)ccc12 [Daidzein]  6.89 min
29. C=CCc1ccccc1OCC(O)CNC(C)C (configuration not stated) [Alprenolol]  6.71 min
30. CCN1CC(CCN2CCOCC2)C(c2ccccc2)(c2ccccc2)C1=O (configuration not stated) [Doxapram]  6.23 min
31. COC(=O)c1ccc(O)cc1 [Methylparaben]  6 min
32. COc1cc2c(cc1OC)C(=O)C(CC1CCN(Cc3ccccc3)CC1)C2 (configuration not stated) [Donepezil]  5.81 min
33. CN(C)P(=O)(OP(=O)(N(C)C)N(C)C)N(C)C [Schradan]  5.36 min
34. CNC(=O)Oc1cc(C)c(S(C)=O)c(C)c1 (configuration not stated) [Methiocarb-sulfoxide]  4.86 min
35. CN1CCN2c3ncc(O)cc3Cc3ccccc3C2C1 (configuration not stated) [Mirtazapine- 8-OH]  4.54 min
36. CCCc1cc(=O)[nH]c(=S)[nH]1 [Propylthiouracil]  4.51 min
37. O=S(=O)(O)c1nc2ccccc2s1 [2-Benzothiazolesulfonic acid]  4.48 min
38. CCCOC(=O)NCCCN(C)C [Propamocarb]  3.5 min
39. CC(=O)Nc1ccc(N)cc1 [4`-Aminoacetanilide]  2.27 min
40. CN(C)NC(=O)CCC(=O)O [Daminozide]  2.18 min
41. CCC(CO)NCCNC(CC)CO (configuration not stated) [Ethambutol]  1.93 min
42. CC1(C)CC(N)CC(C)(CN)C1 (configuration not stated) [Isophorone diamine]  1.67 min
